Molecular target: T1, Ba/F3 cell EGFR Exon20 ins NPH (Homo sapiens, UniProt P00533, INS773NPH)
T1 construct: expressed in transfected cells; host or cells: Ba/F3
Experiment: Ba/F3 cell proliferation suppression, EGFR Exon20 ins NPH
Type: cell-based
Conditions: GI50 class; Ba/F3 cell line with NPH inserted at Exon20 of EGFR; 72 hours
Procedure: The following experiment was carried out to evaluate the suppression activity of the compounds according to the present invention against proliferation of Ba/F3 and lung cancer cells which express EGFR mutations.
Of the cancer cell lines expressing the EGFR gene, A549 was cultured after adding 10% FBS (HyClone) to DMEM (Invitrogen), and RPMI-1640 (Invitrogen) with 10% FBS was used for the other cancer cells. For the Ba/F3 cells, RPMI-1640 with 10% FBS and 5 ng/ml IL-3 (R&D Systems) was used. The transduced Ba/F3 cells were cultured by adding 1 ug/ml puromycin (Invitrogen) to the same medium.
24 hours before treatment with the compounds, 3000 to 5000 cells were distributed into each well of a white clear bottom 96 well plate (Corning). The compounds were diluted in dimethylsulfoxide (dilution ratio 3:1; 12 concentrations total) and injected 0.5 ul each for a final concentration of 0.3 nM to 50 um. As for measurement of live cells, 72 hours after treatment with the compounds, a CellTiter-Glo luminescent cell-viability reagent (Promega) was used to store the cells at room temperature for 10 minutes, followed by measurement of luminescence using a reader (SynergyNeo, Biotek). Each test was repeated three times.
The result was calculated as a cell growth ratio (%) compared to a control. The program GraphPad Prism version 5.0 was used to draw the graphs and calculate the GI50 values.

Structure (SMILES)	Ba/F3 (NPH) Activity
C=CC(=O)Nc1cc(Nc2cc(N3OCC[C@@H]3c3cccc(F)c3F)ncn2)c(OC)cc1N1CCC(N2CCN(C3CC3)[C@@H](C)C2)CC1 [Example 175, N-(2-(4-((S)-4-cyclopropyl-3-methylpiperazine-1-yl)piperidine-1-yl)-5-((6-((R)-3-(2,3-difluorophenyl)isoxazolidine-2-yl)pyrimidine-4-yl)amino)-4-methoxyphenyl) acrylamide]	A (GI50 < 50 nM)
C=CC(=O)Nc1cc(Nc2cc(N3OCC[C@@H]3c3c(F)ccc(F)c3F)ncn2)c(OC)cc1N1CCN(CC)CC1 [compound 631, N-(2-(4-ethylpiperazine-1-yl)-4-methoxy-5-((6-((R)-3-(2,3,6-trifluorophenyl)isoxazolidine-2-yl)pyrimidine-4-yl)amino)phenyl)acrylamide]	B (50 nM ≤ GI50 < 500 nM)
C=CC(=O)Nc1cc(Nc2cc(N3OCC[C@@H]3Cc3ccccc3)ncn2)c(OC)cc1-n1ccnc1C [compound 960, N-(5-((6-((S)-3-benzylisoxazolidine-2-yl)pyrimidine-4-yl)amino)-4-methoxy-2-(2-methyl-1H-imidazole-1-yl)phenyl)acrylamide]	B (50 nM ≤ GI50 < 500 nM)
C=CC(=O)Nc1cc(Nc2cc(N3OCC[C@H]3c3c(F)cccc3F)ncn2)c(OC)cc1N1CCC(N2CCN(CC)CC2)CC1 [compound 312, N-(5-((6-((S)-3-(2,6-difluorophenyl)isoxazolidine-2-yl)pyrimidine-4-yl)amino)-2-(4-(4-ethylpiperazine-1-yl)piperidine-1-yl)-4-methoxyphenyl) acrylamide]	C (500 nM ≤ GI50 < 5000 nM)
C=CC(=O)Nc1cc(Nc2cc(N3OCC[C@@H]3c3c(F)ccc(F)c3F)ncn2)c(OC)cc1N1CCC(N2CCO[C@H](C)C2)CC1 [compound 646, N-(4-methoxy-2-(4-((R)-2-methylmorpholino)piperidine-1-yl)-5-((6-((R)-3-(2,3,6-trifluorophenyl)isoxazolidine-2-yl)pyrimidine-4-yl)amino)phenyl)acrylamide]	A (GI50 < 50 nM)
C=CC(=O)Nc1cc(Nc2cc(N3OCC[C@@H]3c3cccc4ccccc34)ncn2)c(OC)cc1N1CCC(N2CCN(C3CC3)[C@H](C)C2)CC1 [Example 155, N-(2-(4-((R)-4-cyclopropyl-3-methylpiperazine-1-yl)piperidine-1-yl)-4-methoxy-5-((6-((R)-3-(naphthalene-1-yl)isoxazolidine-2-yl)pyrimidine-4-yl)amino)phenyl)acrylamide]	A (GI50 < 50 nM)
C=CC(=O)Nc1cc(Nc2cc(N3OCC[C@@H]3c3cccc(F)c3)ncn2)c(OC)cc1-n1ccnc1C [compound 861, N-(5-((6-((R)-3-(3-fluorophenyl)isoxazolidine-2-yl)pyrimidine-4-yl)amino)-4-methoxy-2-(2-methyl-1H-imidazole-1-yl)phenyl)acrylamide]	B (50 nM ≤ GI50 < 500 nM)
C=CC(=O)Nc1cc(Nc2cc(N3OCC[C@@H]3c3cccc(Cl)c3)ncn2)c(OC)cc1N1CC[C@@H](N2CCOCC2)C1 [compound 465, N-(5-((6-((R)-3-(3-chlorophenyl)isoxazolidine-2-yl)pyrimidine-4-yl)amino)-4-methoxy-2-((R)-3-morpholinopyrolidine-1-yl)phenyl)acrylamide]	A (GI50 < 50 nM)
C=CC(=O)Nc1cc(Nc2cc(N3OCC[C@H]3Cc3ccccc3)ncn2)c(OC)cc1N1CCN(C2CCOCC2)CC1 [compound 975, N-(5-((6-((R)-3-benzylisoxazolidine-2-yl)pyrimidine-4-yl)amino)-4-methoxy-2-(4-(tetrahydro-2H-pyran-4-yl)piperazine-1-yl)phenyl)acrylamide]	C (500 nM ≤ GI50 < 5000 nM)
C=CC(=O)Nc1cc(Nc2cc(N3OCC[C@@H]3c3cccc(Cl)c3F)ncn2)c(OC)cc1N1CCC(N2CCO[C@@H](C)C2)CC1 [compound 356, N-(5-((6-((R)-3-(3-chloro-2-fluorophenyl)isoxazolidine-2-yl)pyrimidine-4-yl)amino)-4-methoxy-2-(4-((S)-2-methylmorpholino)piperidine-1-yl)phenyl) acrylamide]	A (GI50 < 50 nM)

— US12157730B2, “Heteroaryl derivative, method for producing same, and pharmaceutical composition comprising same as effective component” (VORONOI INC., priority 2019, dated 2024)
